Measurements as given in patent US20020127186A1, “Use of electrolytes (lons in solution) to suppress charging of inhalation aerosols” (priority 2000, published 2002).

Key:
[1] = Net aerosol electric charge of AERx aerosols, measured with a Faraday cup; assay type: physicochemical
Method: The AERx™ system (as described and disclosed in U.S. Pat. Nos. 5,544,646 and 6,123,068) produces aerosols by extruding the liquid contents of a single dose blister packet (here 45 uL) through an array of micro-drilled holes. The jets formed during the extrusion process are entrained by the patient inhalation air flow. (Schuster J et al., In Drug Delivery to the Lungs VIII, pp14-17, 1997; Schuster J et al., In Respiratory Drug Delivery VI, pp. 83-90, 1998).
For the measurements of electric charge, the air flow was simulated with pressurized house air. A Faraday cup was inserted in the flow path of the aerosol a few centimeters downstream from the point of generation. It comprised a perforated aluminum cartridge filled with a paper filter, which was inserted into and insulated from a grounded metal enclosure, used as a shield from external electromagnetic noise. A coaxial wire connected to the aluminum cartridge was passed through the metal enclosure and connected to a current-voltage converter of the op-amp design (ammeter). The voltage output from the ammeter was acquired as a function of time by a computer together with other information about the extrusion process, such as the position of the piston that pressurizes the blister pack during an extrusion.
The formulations tested in EXAMPLES 1, 2 and 3 were de-ionized water (DI), sterile water for injection USP (WFI), 5 mM and 10 mM sodium chloride in water, and 30 mg/ml sodium cromoglycate (cromolyn) in water.
The region between aerosol generation and the Faraday cup was inspected after each extrusion (“run”), and any residue found was wiped clean. This region was all metallic in the system used here and comprised two separable parts, the so-called “clamp”, in which the packet is held and the aerosol is generated, and the so-called “diffuser”, which is positioned immediately downstream from the clamp. This diffuser was removed in some of the Examples herein discussed.
A measure of the net electric charge carried by the bolus was obtained from the numerical integral over time of the electric current signals. […]

[2] = Residue between aerosol generation and Faraday cup, inspected after each extrusion; assay type: physicochemical; settings: EXAMPLE 1, diffuser on; 30 mg/ml in water; compared with DI water
Description: The region between aerosol generation and the Faraday cup was inspected after each extrusion (“run”), and any residue found was wiped clean. This region was all metallic in the system used here and comprised two separable parts, the so-called “clamp”, in which the packet is held and the aerosol is generated, and the so-called “diffuser”, which is positioned immediately downstream from the clamp. This diffuser was removed in some of the Examples herein discussed. […] Several runs carried out with a “dummy” packet that contained no liquid (labeled “no article” by the “X” in FIG. 1) gave rise to no measurable levels of charge. […] The difference in residue is another indication of high charging.

[3] = EXAMPLE 2, diffuser not present, solutions in water (5 and 10 mM NaCl; 30 mg/ml cromolyn), compared with WFI, FIG. 2

With [Cl-].[Na+] [NaCl, sodium chloride] the net aerosol charge [1, 3] was “much lower charge than water for injection”.

For O=C(O)c1cc(=O)c2c(OCC(O)COc3cccc4oc(C(=O)O)cc(=O)c34)cccc2o1 [cromolyn, sodium cromoglycate], the net aerosol charge ([1]; EXAMPLE 1, diffuser on, 30 mg/ml in water, compared with DI water, FIG. 1) was “significantly reduced charge level”, the net aerosol charge [1, 3] was “much lower charge than water for injection” and the “residue in the diffuser” value [2] was “a small fraction of the initial packet contents”.
